# Assay results from PubChem BioAssay (NCI).
#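 Where inhibition never reached the appropriate level, the endpoint shown equals the highest concentration tested. Otherwise, values were interpolated linearly from a five-concentration, 48-hour dose response in 96-well plates. Definition used: TGI = concentration required for complete inhibition of growth.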
# Assays:
# Assay in all cases: NCI-60 cell line screen, 48 h
# A549 NSCLC = tested on: A549 NSCLC
# HOP-92 NSCLC = tested on: HOP-92 NSCLC
# MALME-3M melanoma = tested on: MALME-3M melanoma
# MDA-N = tested on: MDA-N
# MOLT-4 leukemia = tested on: MOLT-4 leukemia
# NCI-H226 lung = tested on: NCI-H226 lung
# OVCAR-5 ovarian = tested on: OVCAR-5 ovarian
# SK-MEL-5 melanoma = tested on: SK-MEL-5 melanoma
# U251 CNS = tested on: U251 CNS
# UACC-62 melanoma = tested on: UACC-62 melanoma
SMILES,TGI (A549 NSCLC) [µM],TGI (HOP-92 NSCLC) [µM],TGI (MALME-3M melanoma) [µM],TGI (MDA-N) [µM],TGI (MOLT-4 leukemia) [µM],TGI (NCI-H226 lung) [µM],TGI (OVCAR-5 ovarian) [µM],TGI (SK-MEL-5 melanoma) [µM],TGI (U251 CNS) [µM],TGI (UACC-62 melanoma) [µM]
NC(N)=NS(=O)(=O)c1ccc(NC(=O)c2cccc3c(NNc4ccc(S(N)(=O)=O)cc4)c4ccccc4nc23)cc1,> 100,85.6,88.8,> 100,74.1,> 100,> 100,> 100,> 100,> 100
COC(=O)C1=C(C)NC(C)=C(C(=O)OC)C1c1cccc(N=O)c1,> 100,20.1,28.8,26.2,> 100,37.8,32.3,29.8,30.7,27.6
COc1cc2[nH]c(=O)c3cc(-c4ccccc4)cc4c(Cl)nc(c1OC)c2c43,> 71.7,> 79.3,17.1,13.5,> 44.7,> 100,> 100,28,62.5,34.6
Cn1c2c(c3ccccc31)CCN1C(=O)C34CCCC3CC21S4 (stereo not given),> 100,> 100,> 100,> 100,> 100,> 100,> 100,> 100,> 100,> 100
CC1(C)OC[C@@H](C[C@H](O)COCc2ccccc2)O1,> 100,> 100,> 100,> 100,> 100,> 100,> 100,> 100,> 100,> 100
COCC#C[C@@]1(O)CCCCC1CC(OC)OC (stereo not given in full),> 100,> 100,> 100,> 100,> 100,> 100,> 100,> 100,> 100,> 100
O=C1c2cccnc2S(=O)(=O)N1c1ccc([N+](=O)[O-])cc1,> 100,> 100,> 100,> 100,> 100,> 100,> 100,> 100,> 100,> 100
Clc1cc(C(c2cc(Cl)sc2Cl)c2cc(Cl)sc2Cl)c(Cl)s1,> 100,> 100,> 100,> 100,> 100,> 100,> 100,> 100,> 100,> 100
CC(=O)OCC(=O)O[C@@H]1[C@H]2[C@@H](OC(=O)c3ccccc3)[C@@H](C)C[C@]2(O)[C@H](OC(C)=O)[C@@]2(C)C[C@]1(OC(C)=O)C[C@H]1C(=O)C(C)(C)[C@@H](OC(C)=O)[C@@H]12,> 25,> 25,> 25,> 25,> 25,> 25,> 15.7,> 25,> 25,> 25
NCCN(CCN(C(=O)Nc1ccccc1)c1ccccc1)C(=O)Nc1ccccc1,> 100,44.2,34.2,47.8,> 100,98.6,45.6,43.1,> 100,35.3
COc1cccc(N2C(=O)CS(=O)(=O)C2c2cccc(Oc3ccccc3)c2)c1 (stereo not given),> 100,68.5,69.8,6.45,57.6,76.7,> 100,22.6,49.7,24.7
Nc1c(S(N)(=O)=O)cc(S(N)(=O)=O)cc1S(N)(=O)=O,> 100,> 100,> 100,> 100,> 100,> 100,> 100,> 100,> 100,> 100
COC(=O)C1=C(C(=O)OC)SC(=C2SC3=C(SC(=C4SCCS4)S3)S2)S1,> 100,> 100,> 100,> 100,> 100,> 100,> 100,> 100,> 100,> 100
O=C(O)C1=NN(c2ccc(S(=O)(=O)O)cc2)C2(C1)C(Cl)C(=O)N2c1nc2ccccc2s1 (stereo not given),35.2,48.8,38.7,53.1,39.6,41.4,32.8,25.6,32.1,29.5
Cc1cc(S(=O)(=O)Nc2n[nH]c(Nc3ccccc3)n2)c(SCC(=O)O)cc1Cl,> 100,> 100,> 100,> 100,> 100,> 100,> 100,> 100,> 100,> 100
Cn1nc2c(c1N)Cc1c(nn(C)c1N)-c1ccccc1-2,> 100,> 100,> 100,> 100,> 100,> 100,> 100,> 100,> 100,> 100
CCCCCCCCCCCCOCCOCCOCCOCCOCCOCC(=O)NC(Cc1ccccc1)C(=O)Oc1ccc([N+](=O)[O-])cc1 (stereo not given),> 100,> 100,> 100,> 100,74.8,> 100,> 100,> 100,> 100,56.4
C[C@H](c1ccccc1)N1C(=O)[C@@H](OCc2ccccc2)[C@H]1[C@H](COC(=O)COCc1ccccc1)OCc1ccccc1,> 100,> 100,76.7,> 100,> 100,89.4,> 100,> 100,> 100,> 100
O=CN1CCN(C(=O)c2ccco2)C1=S,26.9,18.7,29.9,24.7,35,54.8,37.7,29.1,32.5,20.7
O=C(OC12CC3CC(CC(C3)C1)C2)c1ccc(NCc2cc(O)ccc2O)cc1,16.5,2.07,1.67,6.56,0.451,6.2,4.59,3.74,2.69,3.28
C[n+]1c(-c2ccc(NC(=O)c3ccc(C(=O)Nc4ccc(-c5cn6ccccc6[n+]5C)cc4)cc3)cc2)cn2ccccc21,> 100,> 100,> 100,> 100,> 100,> 100,> 100,> 100,> 100,> 100
